{
  "source": "patent US20250320401A1",
  "about": "“CORROSION INHIBITOR AND RELATED METHODS OF INHIBITING THE CORROSION OF METAL SURFACES” (Schlumberger Technology Corporation, priority 2024, published 2025)",
  "key": {"[1]": {"conditions": "cited from earlier work"}, "Listeria monocytogenes": {"tested_on": "Listeria monocytogenes", "conditions": "in meat products, milk and cottage cheese; cited from earlier work"}, "Escherichia coli": {"tested_on": "Escherichia coli", "conditions": "in meat products, milk and cottage cheese; cited from earlier work"}, "[2]": {"assay": "Corrosion rate by weight loss analysis of steel coupons in inhibited hydrochloric acid", "conditions": "3.57 mmol, 80° C.", "excerpt": "The corrosion rates were studied by weight loss analysis. The low carbon steel HS80 tubing were cut into coupons of 29±3 cm^2 surface area using a water cooled band saw to minimize any changes in the properties of the metal that may result from heating. After cutting, the coupons were stamped for identification, glass bead blasted and cleaned in acetone to remove any residue from the machining process. The coupons were then dried, placed in plastic bags and stored in airtight jars to prevent contact with humidity or airborne contaminants. The initial surface area of each test coupon was determined by accurate (to four decimal places) measurement of its geometric dimensions.\nThroughout the exposure period, isothermal conditions are maintained (for the present study, the temperature was maintained at 80° C.) and the inhibited acid is continuously stirred using a magnetic stirrer bar. Since the tests were designed to simulate oil well acid stimulation, no effort was made to remove dissolved oxygen from the acid. However, an argon blanket was used to stop any additional intrusion of oxygen during the one hour exposure period. Following each test, the coupons were rinsed in acetone and scrubbed with soap and water to remove residual inhibitor and corrosion deposits. […]"}, "mice [3]": {"tested_on": "mice", "assay": "Acute toxicity, intraperitoneal LD50 in mice", "assay_type": "in vivo", "conditions": "relative to reuterin", "excerpt": "(§1) Biotechnologically produced 3-HPA and the 3-HPA derivatives, such as the cyclic dimeric form of FIG. 2 and others described herein, have a high potential as a food preservative and within health care. […] See Fernandez-Cruz M. L, Martín-Cabrejas I., Palacio J. P., Gaya P., Díaz-Navarro C., Navas J. M., Medina M., Arques J. L., “In vitro toxicity of reuterin, a potential food biopreservative,” Food and Chemical Toxicology 96, 2016, 155-159. In contrast for acrolein, the median intraperitoneal (i.p.) lethal dose 50 (LD50) was estimated to be 7 mg/kg by weight (bw) for mice. The acute toxicity of diacetyl after i.p. exposure in rats is low (525 mg/kg bw). […] The acute toxicity LD50 oral for propargyl alcohol is 20 mg/kg for rats. See Propargyl alcohol, MSDS, Aldrich-Sigma. Overall, the typical polymerizable corrosion inhibitors, i.e. acrolein and propargyl alcohol are 36 and 12 times respectively more toxic than reuterin."}, "mice [4]": {"tested_on": "mice", "conditions": "cited from earlier work"}, "rats [5]": {"tested_on": "rats", "conditions": "cited from earlier work"}, "rats [6]": {"tested_on": "rats", "assay": "Acute toxicity, oral LD50 in rats", "assay_type": "in vivo", "conditions": "relative to reuterin", "excerpt": "as §1"}, "rats [7]": {"tested_on": "rats", "conditions": "cited from earlier work", "remark": "listed apart in the source"}},
  "data": [
    {"smiles": "O=CCCO", "note": "[3-HPA, 3-Hydroxypropionaldehyde]", "values": [
      {"measurement": "i.p. LD50", "setting": "[1]; i.p.", "result": "approximately 250 mg/kg bw"},
      {"measurement": "toxicity relative to diacetyl", "setting": "[1]; relative to diacetyl", "result": "two times more toxic than diacetyl"},
      {"measurement": "growth inhibition", "setting": "Listeria monocytogenes", "result": "inhibit the growth"},
      {"measurement": "growth inhibition", "setting": "Escherichia coli", "result": "inhibit the growth"},
      {"measurement": "inhibition efficiency", "setting": "[2]; 4M HCl", "result": 89, "unit": "%"},
      {"measurement": "inhibition efficiency", "setting": "[2]; 28% HCl (so in the source)", "result": 97, "unit": "%"}
    ]},
    {"smiles": "C=CC=O", "note": "[Acrolein]", "values": [
      {"measurement": "times more toxic than reuterin", "setting": "mice [3]", "result": 36, "unit": "times"},
      {"measurement": "median intraperitoneal (i.p.) lethal dose 50 (LD50)", "setting": "mice [4]", "result": "7 mg/kg by weight (bw)"}
    ]},
    {"smiles": "C#CCO", "note": "[Propargyl alcohol]", "values": [
      {"measurement": "acute toxicity LD50 oral", "setting": "rats [5]", "result": 20, "unit": "mg/kg"},
      {"measurement": "times more toxic than reuterin", "setting": "rats [6]", "result": 12, "unit": "times"}
    ]},
    {"smiles": "CC(=O)C(C)=O", "note": "[diacetyl]", "values": [
      {"measurement": "acute toxicity after i.p. exposure", "setting": "rats [7]", "result": 525, "unit": "mg/kg bw"}
    ]}
  ]
}
